Converted amounts (≈) assume the structure as drawn.
How the values were obtained:
[1] = test system: S. aureus USA300 wild type; experiment: microbe, parasite or virus in culture; type: cell-based
Description: Wild-type clinical S. aureus strains were obtained from the Network on Antibiotic Resistance in Staphylococcus aureus (NARSA/BEI) program. MRSA strain USA300 refers throughout this paper to strain NRS384 from NARSA/BEI. A global panel of 102 clinical S. aureus isolates was selected from the collection of International Health Management Associates, Inc. (IHMA; Schaumburg, IL), based on diversity of geographic locations, antibiotic resistance profiles, and sites of infection. Bacteria were cultured on cation-adjusted Mueller-Hinton agar (MHA) plates or in cation-adjusted Mueller-Hinton broth (MHB). Bacterial strains used in this study are listed in Table S5 in the supplemental material.
(§1) MICs were determined according to the standard protocol from the Clinical and Laboratory Standards Institute ([23]). Briefly, S. aureus bacteria were harvested from regular MHA plates that had been cultured for ~20 h at 37°C. Serial dilutions of compound 103 were incubated with bacteria at approximately 10^6 CFU (CFU)/ml in MHB in round-bottom 96 well plates (Corning, Corning, NY) for 22 h at 37°C. MICs were determined by the lowest concentration of compound 103 showing absence of growth by visual inspection.

[2] = test system: S. aureus USA300 cro/cI (M1V) (GNE0117); experiment: MIC, cro/cI(M1V) mutant; type: cell-based; settings: for effect of cro/cI mutation on sensitivity to antibiotics: result in words, versus USA300 WT
Method: as §1

[3] = test system: USA300 WT strain (strain GNE0023); experiment: MIC, parental USA300 WT strain GNE0023; type: cell-based, S. aureus
Method: as §1
(§2) To generate mutations in SAUSA300_0351, _0352, and _0353 genes by homologous recombination, we transformed USA300 Δmcr using targeting constructs created in the vector pIMAY ([24]). To generate mutations in SAUSA300_0351, _0352, and _0353 genes in a cro/cI mutant background, we selected colonies from USA300 Δmcr cultured on plates containing fourfold the MIC of compound 103. Sequencing of PCR products of the cro/cI gene from resistant colonies yielded a clone with a Q16stop codon mutation in cro/cI (strain GNE0173). We further mutated SAUSA300_0351, _0352, and _0353 in this USA300 Δmcr cro/cI (Q16stop) clone to study the contributions of these three genes to cro/cI-mediated resistance.

[4] = test system: S. aureus USA300 SAUSA300_0352(K44A) mutant (strain GNE0174); experiment: MIC, K44A mutant GNE0174; type: cell-based
Method: as §1, §2

[5] = S. aureus USA300 cro/cI (M1V) (GNE0117), Table S2

Compound | MIC ([1]; Staphylococcus aureus, USA300) [mg/L] | effect of cro/cI mutation on sensitivity to antibiotics [2] | further results
CCC[C@@H]1C[C@@H](C(=O)N[C@@H]([C@H]2O[C@H](SC)[C@H](O)[C@@H](O)[C@H]2O)[C@H](C)Cl)N(C)C1 [Clindamycin] | 0.25 (≈ 0.588 µM) | did not reduce sensitivity | 
CCCCCCCCCC(=O)N[C@@H](Cc1c[nH]c2ccccc12)C(=O)N[C@H](CC(N)=O)C(=O)N[C@@H](CC(=O)O)C(=O)N[C@@H]1C(=O)NCC(=O)N[C@@H](CCCN)C(=O)N[C@@H](CC(=O)O)C(=O)N[C@H](C)C(=O)N[C@@H](CC(=O)O)C(=O)NCC(=O)N[C@H](CO)C(=O)N[C@@H]([C@H](C)CC(=O)O)C(=O)N[C@@H](CC(=O)c2ccccc2N)C(=O)O[C@@H]1C [Daptomycin] |  | did not reduce sensitivity | MIC ([1]; S. aureus USA300 WT, Table S2): 2 mg/L (≈ 1.23 µM); MIC [2, 5]: 2 mg/L (≈ 1.23 µM)
CC[C@H]1OC(=O)[C@H](C)[C@@H](O[C@H]2C[C@@](C)(OC)[C@@H](O)[C@H](C)O2)[C@H](C)[C@@H](O[C@@H]2O[C@H](C)C[C@H](N(C)C)[C@H]2O)[C@](C)(O)C[C@@H](C)C(=O)[C@H](C)[C@@H](O)[C@]1(C)O [Erythromycin] | > 64 | did not reduce sensitivity | MIC ([2]; Staphylococcus aureus, USA300): > 64 mg/L
COc1c(N2CCNC(C)C2)c(F)cc2c(=O)c(C(=O)O)cn(C3CC3)c12 (stereo not drawn) [Gatifloxacin] | 0.5 (≈ 1.33 µM) | did not reduce sensitivity | 
CNC(C)C1CCC(N)C(OC2C(N)CC(N)C(OC3OCC(C)(O)C(NC)C3O)C2O)O1 (stereo not drawn) [Gentamycin] | 1 (≈ 2.09 µM) | did not reduce sensitivity | 
CC(=O)NC[C@H]1CN(c2ccc(N3CCOCC3)c(F)c2)C(=O)O1 [Linezolid] | 4 (≈ 11.9 µM) | did not reduce sensitivity | 
CO[C@@H]1[C@@H](OC(N)=O)[C@@H](O)[C@H](Oc2ccc3c(O)c(NC(=O)c4ccc(O)c(CC=C(C)C)c4)c(=O)oc3c2C)OC1(C)C [Novobiocin] | 0.25 (≈ 0.408 µM) | did not reduce sensitivity | 
Cc1onc(-c2ccccc2)c1C(=O)N[C@@H]1C(=O)N2[C@@H]1SC(C)(C)[C@@H]2C(=O)O [Oxacillin] | 64 (≈ 159 µM) | did not reduce sensitivity | 
CO[C@H]1/C=C/O[C@@]2(C)Oc3c(C)c(O)c4c(O)c(c(/C=N/N5CCN(C)CC5)c(O)c4c3C2=O)NC(=O)/C(C)=C\C=C\[C@H](C)[C@H](O)[C@@H](C)[C@@H](O)[C@@H](C)[C@H](OC(C)=O)[C@@H]1C [Rifampicin] | 0.06 (≈ 0.0729 µM) | did not reduce sensitivity | 
CN[C@H](CC(C)C)C(=O)N[C@H]1C(=O)N[C@@H](CC(N)=O)C(=O)N[C@H]2C(=O)N[C@H]3C(=O)N[C@H](C(=O)N[C@H](C(=O)O)c4cc(O)cc(O)c4-c4cc3ccc4O)[C@H](O)c3ccc(c(Cl)c3)Oc3cc2cc(c3O[C@@H]2O[C@H](CO)[C@@H](O)[C@H](O)[C@H]2O[C@H]2C[C@](C)(N)[C@H](O)[C@H](C)O2)Oc2ccc(cc2Cl)[C@H]1O [Vancomycin] |  | did not reduce sensitivity | MIC ([1]; S. aureus USA300 WT, Table S2): 2 mg/L (≈ 1.38 µM); MIC [2, 5]: 1 mg/L (≈ 0.69 µM)
nisin |  |  | MIC [3]: 200 mg/L; MIC [4]: 200 mg/L
protamine |  |  | MIC [3]: 8 mg/L; MIC [4]: 8 mg/L

Source: article PMC5013292, “A Putative Bacterial ABC Transporter Circumvents the Essentiality of Signal Peptidase” (mBio, 2016)
